These results are taken from patent publication US10624895B2, “Methods of sensitizing a patient with glioma to a therapeutic agent by administering small hairpin RNA targeting PDZ-RHOGEF” (THE TRANSLATIONAL GENOMICS RESEARCH INSTITUTE, priority 2016, dated 2020).

One experiment relates to Rac1. The experiment can be described thus: Rac1 activation assay after PPF. Type of experiment: cell-based, human. The following applies: T98G cells, 5 μM PPF 1 hour, then 10% FBS. The procedure: (§1) FIGS. 27A and 27B depict that PPF suppresses GBM cell invasion and Rac1 activation. FIG. 27A—T98G, GBM10, and GBM43 glioma cells were treated with 5 μM PPF and invasion was assayed over 24 hours utilizing a Matrigel® invasion assay, *p<0.05. FIG. 27B—T98G glioma cells were serum starved, pre-incubated with 5 μM PPF or vehicle for 1 hour, and then stimulated with 10% FBS for 2-10 mins. Cell lysates were harvested and equal concentrations of protein were assessed for Rac1 activation.
(§2) Referring now to FIGS. 27A and 27B: The inventors next examined whether PPF inhibited TROY dependent glioma cell invasion. […] Briefly, 5.0×10^5 cells glioma cells were seeded in 100-mm diameter culture dishes and incubated overnight at 37° C. Subsequently, cells were serum starved for 16 hours at 37° C. Cells were then harvested, re-suspended in growth factor reduced Matrigel® (Becton Dickinson) (1.0×10^5 cells/50 μL), added in triplicates to collagen-coated transwell chambers, and allowed to invade through Matrigel® in presence of 10% FBS and/or 5 μM PPF. After incubation for 24 hours at 37° C. non-invaded cells were scrapped off the upper side of the membrane and cells invaded to the other side of the membrane were fixed with 4% paraformaldehyde (PFA) (Affymetrix) and stained with DAPI (Invitrogen). Nuclei of invaded cells were counted in five high power fields (HPF) with a 20× objective.

In experiment [1] the test system is T98G, GBM10, and GBM43 cells. The experiment can be described thus: Cell proliferation by automated cell counting. The following applies: 5, 50, 500 μM PPF, up to 144 hours. The experiment is classed as cell-based, human. The procedure: FIG. 25A—T98G, GBM43, and GBM10 cells were incubated with increasing concentrations of PPF (0, 5, 50, and 500 After 0, 48, 96 and 144 hours of treatment, cell were trypsinized and counted using an automated cell counter. FIG. 25B—GBM43, GBM10, and T98G glioma cells were treated with increasing doses of PPF (0.5, 1, 5, 10, and 20 μM) in triplicate. The CellTiterGlo® (Promega) reagent was used to measure survival. Raw values were normalized on a plate-by-plate basis such that 100% cell viability was equivalent to the mean of vehicle wells and 0% cell viability was equivalent to the mean of the MG132 positive control. The normalized data was used to assess viability of glioma cells after PPF treatment.
Referring now to FIGS. 25A and 25B: To determine if PPF influences glioma cell proliferation, the inventors treated T98G, GBM10, and GBM43 cells with increasing concentrations of PPF and evaluated cell proliferation over the course of 144 hours. Briefly, 1.25×10^5 cells were seeded (n=3) in 12-well plates in 1 mL of DMEM supplemented with 10% FBS and allowed to attach at 37° C. for 16 hrs. […] After 0, 48, 96 and 144 hours of treatment, the cells were trypsinized and counted using the automated cell counter. […] Subsequently, 100 μL of CellTiterGlo® reagent was added to each well and luminescence was measured using Envision Reader. […]

A further experiment deals with microglia. The following applies: by decreasing TROY expression; cited from earlier work.
The subject of the next experiment is TNFR1. The experiment can be described thus: Western blot of TNFR1 expression after PPF treatment. Type of experiment: cell-based, human. The following applies: T98G, GBM10, GBM43 cells, 5 μM PPF, 24 hours. The procedure: FIG. 24A—a Western blot analysis of TROY expression in T98G cells. Cells were treated with PPF at indicated concentrations for 6 hrs, lysed, and cell lysates immunoblotted with anti-TROY antibody. Immunoblotting of α-Tubulin in cell lysates is included as a loading control. FIG. 24B—Western blot analysis of TROY expression in T98G, GBM43, and GBM10 cells. Cells were treated with PPF at indicated concentrations for 24 hrs, lysed, and cell lysates immunoblotted with anti-TROY and α-Tubulin antibodies. FIG. 24C—Western Blot analysis of TROY expression in GBM10 and GBM43 primary glioma cells. Cells were treated with 5 μM PPF, lysed at the indicated time-points, and the lysates immunoblotted with an anti-TROY antibody. Immunoblotting of β-Actin in cell lysates is included as a loading control. FIG. […]—Western Blot analysis of T98G, GBM10 and GBM43 glioma cells treated with 5 μM PPF for 24 hours. […]
Referring now to FIGS. 24A, 24B, 24C, and 24D: The inventors investigated if PPF could be utilized pharmacologically to decrease TROY expression in GBM cells. […] Cells were treated with increasing concentration of PPF, 1 to 20 μM lysed, and TROY expression assessed by immunobloting. […] Protein concentrations were determined using the BCA Assay (Pierce). […] Protein bands were detected using SuperSignal® Chemiluminescent Substrate (Pierce) with a UVP BioSpectrum 500 Imaging System.
For orientation: A western blot detects proteins with antibodies after separation by electrophoresis.

The test system of experiment [2] is T98G, GBM10, and GBM43 glioma cells. The experiment can be described thus: Matrigel invasion assay. The following applies: 5 μM PPF, 24 hours, 10% FBS. Type of experiment: cell-based, human. The method, then:
as §1, §2

Consider `CCCn1cnc2c1c(=O)n(CCCCC(C)=O)c(=O)n2C` [PPF, 3-methyl-1-(5-oxohexyl)-7-propyl-3,7-dihydro-1H-purine-2,6-dione], for which the Rac1 activation result with Rac1 is listed as “inhibited Rac1 activation”. In experiment [1], the glioma cell proliferation result is on record as “did not affect the proliferation”. Also, the migration of microglia result in the experiment on microglia is listed as “inhibit the migration of microglia”. Also, the TNFR1 expression entry in the experiment on TNFR1 was “did not affect the expression”. In addition, the glioma cell invasion entry in experiment [2] is “significantly inhibited glioma cell invasion”.
